We go through 22 molecules from patent US10875851B2, “Factor XIIa inhibitors” (Merck Sharp & Dohme Corp., priority 2016, dated 2020).

In this experiment the target is human Factor XIIa (Homo sapiens (Human), UniProt P00748). The experiment is described as follows: Factor XIIa Assay. It is filed as biochemical. As to conditions: purified human Factor XIIa 500 pM; substrate n-Acetyl-Lys-Pro-Arg-AFC 100 μM; pH 7.4; read-out: FXIIa IC50. The essentials: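 Purified human FXIIa at 500 pM final with 100 μM n-Acetyl-Lys-Pro-Arg-AFC in 50 mM HEPES, 150 mM NaCl, 5 mM CaCl2, 0.1% PEG 8000, pH 7.4, at room temperature or 37° C. Initial fluorogenic hydrolysis rates measured after enzyme–inhibitor equilibration; IC50 taken where Vi=Vo/2.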
Chain of human Factor XIIa (P00748 373-615): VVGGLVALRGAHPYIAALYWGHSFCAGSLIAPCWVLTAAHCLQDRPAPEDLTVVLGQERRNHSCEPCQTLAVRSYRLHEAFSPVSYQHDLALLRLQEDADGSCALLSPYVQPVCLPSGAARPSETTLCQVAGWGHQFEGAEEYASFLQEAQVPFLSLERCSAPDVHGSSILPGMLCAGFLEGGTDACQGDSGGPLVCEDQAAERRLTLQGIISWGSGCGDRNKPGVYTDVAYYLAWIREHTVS
Regarding `C[C@@H]1N=C(N2CCN(C(=O)[C@@H](CC3CCN(C4CCC(C(N)=O)CC4)CC3)NC3CCC(C(N)=O)CC3)[C@H](C(=O)NCc3cccs3)C2)O[C@H]1c1ccccc1` (stereo partly drawn) [Example 182, (2S)-1-{N-(4-carbamoylcyclohexyl)-3-[1-(4-carbamoylcyclohexyl)piperidin-4-yl]-D-alanyl}-4-[(4S,5S)-4-methyl-5-phenyl-4,5-dihydro-1,3-oxazol-2-yl]-N-(thiophen-2-ylmethyl)piperazine-2-carboxamide], the IC50 was determined as 34.2 nM. Next, `C[C@@H]1N=C(N2CCN(C(=O)[C@@H](CCCCNS(C)(=O)=O)NC3CCCCC3)[C@H](C(=O)NCc3cccs3)C2)O[C@H]1c1ccccc1C#N` [Example 127, (2S)-4-[(4S,5S)-5-(2-cyanophenyl)-4-methyl-4,5-dihydro-1,3-oxazol-2-yl]-1-[N^2-cyclohexyl-N^6-(methylsulfonyl)-D-lysyl]-N-(thiophen-2-ylmethyl)piperazine-2-carboxamide]: 18.7 nM; `CS(=O)(=O)NCCCC[C@@H](NC1CCCCC1)C(=O)N1CCN(C2=NCC3(CCCCC3)O2)C[C@H]1C(=O)NCc1cccs1` [Example 126, (2S)-1-[N^2-cyclohexyl-N^6-(methylsulfonyl)-D-lysyl]-4-(1-oxa-3-azaspiro[4.5]dec-2-en-2-yl)-N-(thiophen-2-ylmethyl)piperazine-2-carboxamide]: 21.1 nM; `Cc1ccc(OC(=O)N2CCN(C(=O)[C@H](N)CCCCN3CCCCC3)[C@H](C(=O)NCc3cccs3)C2)c(Cl)c1C` [Example 111, 2-chloro-3,4-dimethylphenyl (3S)-4-(6-piperidin-1-yl-D-norleucyl)-3-[(thiophen-2-ylmethyl)carbamoyl]piperazine-1-carboxylate]: 5 nM. Next, `C[C@@H]1N=C(N2CCN(C(=O)[C@@H](CCCCN3CCCCC3)NC3CCC(CN)CC3)[C@H](C(=O)NCc3ccc4[nH]cc(Cl)c4c3)C2)O[C@H]1c1ccccc1` (stereo partly drawn) [Example 172, (2S)-1-{N-[4-(aminomethyl)cyclohexyl]-6-piperidin-1-yl-D-norleucyl}-N-[(3-chloro-1H-indol-5-yl)methyl]-4-[(4S,5S)-4-methyl-5-phenyl-4,5-dihydro-1,3-oxazol-2-yl]piperazine-2-carboxamide]: 0.6 nM; `Cc1ccc(OC(=O)N2CCN(C(=O)[C@@H](CCCCNC(C)C)NC3CCCCC3)[C@H](C(=O)NCc3cccs3)C2)c(Cl)c1C` [Example 102, 2-chloro-3,4-dimethylphenyl (3S)-4-[N^2-cyclohexyl-N^6-(1-methylethyl)-D-lysyl]-3-[(thiophen-2-ylmethyl)carbamoyl]piperazine-1-carboxylate]: 0.7 nM; `CS(=O)(=O)NCCCC[C@@H](NC1CCC2(CC1)CCN(Cc1ccccc1)C2)C(=O)N1CCN(C(=O)Oc2cccc(CN)c2Cl)C[C@H]1C(=O)NCc1cccs1` (stereo partly drawn) [Example 82, 3-(aminomethyl)-2-chlorophenyl (3S)-4-[N^2-(2-benzyl-2-azaspiro[4.5]dec-8-yl)-N^6-(methylsulfonyl)-D-lysyl]-3-[(thiophen-2-ylmethyl)carbamoyl]piperazine-1-carboxylate]: 2.1 nM. Next, `C[C@@H]1N=C(N2CCN(C(=O)[C@@H](CCCCNS(C)(=O)=O)NC3CCCCC3)[C@H](C(=O)NCc3cccs3)C2)O[C@H]1c1cccc(Cl)c1` [Example 125, (2S)-4-[(4S,5S)-5-(3-chlorophenyl)-4-methyl-4,5-dihydro-1,3-oxazol-2-yl]-1-[N^2-cyclohexyl-N^6-(methylsulfonyl)-D-lysyl]-N-(thiophen-2-ylmethyl)piperazine-2-carboxamide]: 23 nM.

Regarding `O=C(NCc1cccs1)[C@@H]1CN(C(=O)Oc2ccccc2Cl)CCN1C(=O)[C@@H](CCCCN1CCCCC1)NC1CCCCC1` [Example 97, 2-chlorophenyl (3S)-4-(N-cyclohexyl-6-piperidin-1-yl-D-norleucyl)-3-[(thiophen-2-ylmethyl)carbamoyl]piperazine-1-carboxylate], the IC50 is 0.7 nM. Take `C[C@@H]1N=C(N2CCN(C(=O)[C@@H](CCCCNS(C)(=O)=O)NC3CCCCC3)[C@H](C(=O)NCc3cccs3)C2)O[C@H]1c1ccccc1` [Example 123, (2S)-1-[N^2-cyclohexyl-N^6-(methylsulfonyl)-D-lysyl]-4-[(4S,5S)-4-methyl-5-phenyl-4,5-dihydro-1,3-oxazol-2-yl]-N-(thiophen-2-ylmethyl)piperazine-2-carboxamide]: the IC50 stood at 7 nM. For `CC(C)N[C@H](CCCCN1CCCCC1)C(=O)N1CCN(C2=N[C@@H](C)[C@H](c3ccccc3)O2)C[C@H]1C(=O)NCc1cc(CN)cs1` [Example 178, (2S)-N-{[4-(aminomethyl)thiophen-2-yl]methyl}-1-[N-(1-methylethyl)-6-piperidin-1-yl-D-norleucyl]-4-[(4S,5S)-4-methyl-5-phenyl-4,5-dihydro-1,3-oxazol-2-yl]piperazine-2-carboxamide], the IC50 is 4.6 nM.

`CN(C)CCCC[C@H](C(=O)N1CCN(C(=O)Cc2cccc3c2CCNC3)C[C@H]1C(=O)NCc1cccs1)N(C)C1CCC2(CC1)CCN(Cc1ccccc1)C2` (stereo partly drawn) [Example 96, (2S)-1-[N^2-(2-benzyl-2-azaspiro[4.5]dec-8-yl)-N^2,N^6,N^6-trimethyl-D-lysyl]-4-(1,2,3,4-tetrahydroisoquinolin-5-ylacetyl)-N-(thiophen-2-ylmethyl)piperazine-2-carboxamide]: the IC50 was determined as 11.9 nM. The result for `C[C@@H]1N=C(N2CCN(C(=O)[C@@H](CCCCN(C)C)NC3CCC(CN)CC3)[C@H](C(=O)NCc3cccs3)C2)O[C@H]1c1ccccc1` (stereo partly drawn) [Example 133, (2S)-1-{N^2-[4-(aminomethyl)cyclohexyl]-N^6,N^6-dimethyl-D-lysyl}-4-[(4S,5S)-4-methyl-5-phenyl-4,5-dihydro-1,3-oxazol-2-yl]-N-(thiophen-2-ylmethyl)piperazine-2-carboxamide] reads 6.6 nM.

On to `O=C(NCc1cccs1)[C@@H]1CN(C(=O)Oc2cccc3c2CNCC3)CCN1C(=O)[C@@H](CC1CCCCC1)NC1CCCCC1` [Example 37, 1,2,3,4-tetrahydroisoquinolin-8-yl (3S)-4-(N,3-dicyclohexyl-D-alanyl)-3-[(thiophen-2-ylmethyl)carbamoyl]piperazine-1-carboxylate], for which the IC50 was found to be 5.3 nM. For the molecule `C[C@@H]1N=C(N2CCN(C(=O)[C@@H](CCCCN(C)C)NC3CCC4(CC3)CCN(Cc3ccccc3)C4)[C@H](C(=O)NCc3cccs3)C2)O[C@H]1c1ccccc1` (stereo partly drawn) [Example 130, (2S)-1-[N^2-(2-benzyl-2-azaspiro[4.5]dec-8-yl)-N^6,N^6-dimethyl-D-lysyl]-4-[(4S,5S)-4-methyl-5-phenyl-4,5-dihydro-1,3-oxazol-2-yl]-N-(thiophen-2-ylmethyl)piperazine-2-carboxamide], the IC50 was 1.2 nM. The result for `C[C@@H]1N=C(N2CCN(C(=O)[C@@H](CCCCN(C)C)NC3CCCCC3)[C@H](C(=O)NCc3cccs3)C2)O[C@H]1c1cccc(C#N)c1` [Example 138, (2S)-4[(4S,5S)-5-(3-cyanophenyl)-4-methyl-4,5-dihydro-1,3-oxazol-2-yl]-1-(N^2-cyclohexyl-N^6,N^6-dimethyl-D-lysyl)-N-(thiophen-2-ylmethyl)piperazine-2-carboxamide] reads 1.4 nM; that for `C[C@@H]1N=C(N2CCN(C(=O)[C@@H](CCCCNS(C)(=O)=O)NC3CCCCC3)[C@H](C(=O)NCc3cccs3)C2)O[C@H]1c1cccc(C#N)c1` [Example 116, (2S)-4-[(4S,5S)-5-(3-cyanophenyl)-4-methyl-4,5-dihydro-1,3-oxazol-2-yl]-1-[N^2-cyclohexyl-N^6-(methylsulfonyl)-D-lysyl]-N-(thiophen-2-ylmethyl)piperazine-2-carboxamide], 17.8 nM; that for `Cc1ccc(OC(=O)N2CCN(C(=O)[C@@H](CCCCN(C)C)N(C)C3CCCCC3)[C@H](C(=O)NCc3cccs3)C2)c(Cl)c1C` [Example 101, 2-chloro-3,4-dimethylphenyl (3S)-4-(N^2-cyclohexyl-N^2,N^6,N^6-trimethyl-D-lysyl)-3-[(thiophen-2-ylmethyl)carbamoyl]piperazine-1-carboxylate], 0.1 nM. Take `C[C@H]1N=C(N2CCN(C(=O)[C@@H](CCCCNS(C)(=O)=O)NC3CCCCC3)[C@H](C(=O)NCc3cccs3)C2)O[C@H]1c1ccccc1` [Example 122, (2S)-1-[N^2-cyclohexyl-N^6-(methylsulfonyl)-D-lysyl]-4-[(4R,5S)-4-methyl-5-phenyl-4,5-dihydro-1,3-oxazol-2-yl]-N-(thiophen-2-ylmethyl)piperazine-2-carboxamide]: the IC50 came to 13.5 nM. Next, `CN(C)CCCC[C@@H](NC1CCCCC1)C(=O)N1CCN(C2=NC(C)(C)CO2)C[C@H]1C(=O)NCc1cccs1` [Example 144, (2S)-1-(N^2-cyclohexyl-N^6,N^6-dimethyl-D-lysyl)-4-(4,4-dimethyl-4,5-dihydro-1,3-oxazol-2-yl)-N-(thiophen-2-ylmethyl)piperazine-2-carboxamide]: 29.7 nM; `CC(C)(C)C(=O)N1CCC([C@@H](NC2CCCCC2)C(=O)N2CCN(C(=O)Oc3ccccc3Cl)C[C@H]2C(=O)NCc2cccs2)CC1` [Example 69, 2-chlorophenyl (3S)-4-{(2R)-2-(cyclohexylamino)-2-[1-(2,2-dimethylpropanoyl)piperidin-4-yl]acetyl}-3-[(thiophen-2-ylmethyl)carbamoyl]piperazine-1-carboxylate]: 8.4 nM.

In the case of `CC1(C)N=C(N2CCN(C(=O)[C@H](N)CCCCN3CCCCC3)[C@H](C(=O)NCc3cc4cnccc4s3)C2)OC1c1ccccc1` (stereo partly drawn) [Example 158, (2S)-4-(4,4-dimethyl-5-phenyl-4,5-dihydro-1,3-oxazol-2-yl)-1-(6-piperidin-1-yl-D-norleucyl)-N-(thieno[3,2-c]pyridin-2-ylmethyl)piperazine-2-carboxamide], the IC50 turned out to be 54.4 nM.
